Measurements reported in paper PMC12428610, “Gas-Binding Studies of Class 1 Sugar Beet Phytoglobin and C86A Mutant Using Isothermal Spectral Shifts in High-Precision Microliter Assay” (International Journal of Molecular Sciences, 2025).
Values joined by “and” are separate entries in the source; they are usually repeats but may differ in a detail not shown here. Equal entries are not always repeated. Where two headings read alike, the source gives them in different places.

Experiments:
BvPgb 1.2 C86A mutant = test: Isothermal spectral shift (SpS) gas-binding titration, Monolith X, RED-NHS-labeled protein; parameters: species or system Beta vulgaris
Excerpt: (§1) The microscale capillary-based technology described here employs isothermal spectral shift (SpS). SpS has previously primarily been used for the determination of protein–protein interactions. In this study, we examine the possibility to extend the use of this technique to also include the binding of small ligands, like gases, to proteins. Ligand binding induces shifts in fluorescence spectra (blue- or red-shifts), which are detectable under isothermal conditions via dual-wavelength fluorescence detection at 650 nm and 670 nm. By plotting fluorescence intensity ratios (670/650 nm) against ligand concentration, the SpS-derived KD can be obtained. Our goal is to determine KD or half maximal effective concentrations (EC50) from ligand titration series. Here, we present a streamlined microscale method employing fluorophore-labeled proteins in gas-saturated microscale capillaries.
(§2) The proteins were thus incubated in solutions enriched with either CO or dissolved NONOate, utilizing a loading buffer (PBS-T20) to maintain gas saturation. Subsequent titrations of gas-enriched solutions yielded clear, reproducible dose–response curves.
(§3) All SpS measurements conducted in this study were performed using the Monolith X instrument (NanoTemper Technologies GmbH, München, Germany), which is equipped with dual-emission detection optics. The MO.Control 2software (NanoTemper Technologies GmbH) was used to calculate fluorescence intensity ratios at 670 and 650 nm. KD values were determined by fitting dose–response curves to a binding model that follows the law of mass action with a 1:1 interaction stoichiometry. This model defines the bound fraction, f(cL), at equilibrium for a given ligand concentration, cL, as given by Equation (1):(1) fcL=cL+cT+KD−cL+cT+KD^2−4cLcT/2cT where cT is the final concentration of target in the assay. The KD is estimated by fitting Equation (1) with the ratiometric expression seen in Equation (2):(2) RcL=Rf+fcL·Rb−Fb/Ff·Rf/1+fcL·Fb/Ff−1 where R(cL) represents the 670 nm/650 nm ratio at a given cL, Rf corresponds to the ratio of the free target, and Rb corresponds to the bound complex. The parameters Fb and Ff, derived from the sigmoidal dose–response curve fitting of the […], adjust for ligand-induced changes in fluorescence intensity at 650 nm.
(§4) Covalent labeling of primary amines was performed using the Protein Labeling Kit RED-NHS 2nd Generation (cat# MO-L011; NanoTemper Technologies GmbH). The assay buffer (PBS-T20) was prepared by supplementing degassed PBS pH 7.4 (cat# 21-040-CV; Corning, NY, USA) with 0.05% Tween20. Purified proteins in Tris were subjected to buffer exchange using the A-column prior to labeling. Briefly, a twofold molar excess of dye was added to the protein prepared to a final concentration of 20 µM. Proteins and dye were incubated for 30 min at room temperature in the dark to avoid photobleaching. Free dye was removed from the labeled protein using the provided B-column. Labeled proteins were kept in the dark and on ice awaiting capillary loading.
(§5) A working 1 mM CO solution was prepared by sparging PBS-T20 with CO, with the concentration approximated through Henry’s law for CO dissolvability in water (kH(CO) ≈ 0.001 mol l^−1 bar^−1). A working 2 mM NO solution (kH(NO) ≈ 0.002 mol l^−1 bar^−1) was prepared by dissolving 25 mg of NONOate (cat# D184-25MG; Merck, Darmstadt, Germany) in 15 mL of PBS-T20 to obtain a 10.75 mM solution, which provides a 10-molar excess of saturation upon decomposition. The NONOate PBS-T20 solution was gently agitated to create a gas-buffer zone to capture decomposing NONOate. Ligand solutions were prepared as 16-point serial dilutions of 10 µL in PCR-strip tubes, before being mixed by means of aspiration with 10 µL of labeled protein and incubated for 5 min. […]

[1] = molecular target: BvPgb 1.2 recombinant wild type (rWT); test: as above; parameters: species or system Beta vulgaris
Excerpt: as §1, §2, §3, §4, §5

BvPgb 1.2 = test: Flash photolysis and stopped-flow rapid mixing; KD calculated per Equation (3); format: binding, Beta vulgaris; conditions: rWT, calculated per Equation (3) KD,obs=koff(1+KH)/kon from kinetic parameters of ref 30
Excerpt: Our obtained results are consistent with KD values derivable from earlier work, where kinetic parameters for BvPgb 1.2 were obtained using stopped-flow rapid mixing and flash photolysis, allowing the calculation of a single apparent KD per gas. While not explicitly reported, KD can be estimated from those data using Equation (3):(3) KD,obs=koff(1+KH)/kon where KH is the hexacoordination equilibrium constant and the (1 + KH) factor is used to account for the “penalty” imposed by the hexacoordinated fraction. […] The additional lower KD or EC50 for CO (400–500 nM) observed with our method likely reflects the contribution of the closed protein form, consistent with the 100–1000-fold kinetic differences reported in [27, 28, 29].

[2] = first transition of biphasic dose-response, read-out: EC50, CO binding, first transition
[3] = second transition of biphasic dose-response, read-out: EC50, CO binding, second transition
[4] = PBS-T20 pH 7.4, NO from NONOate, read-out: KD(NO), Isothermal Spectral Shift
[5] = text and figure legend, read-out: KD, NO binding

Compound	KD(CO, closed) /EC50,2, Isothermal Spectral Shift (BvPgb 1.2 C86A mutant; PBS-T20 pH 7.4) [nM]	KD(CO, open) /EC50,1, Isothermal Spectral Shift (BvPgb 1.2 C86A mutant; PBS-T20 pH 7.4) [nM]	EC50 (BvPgb 1.2 C86A mutant; [2]) [nM]	EC50 (BvPgb 1.2 C86A mutant; [3]) [nM]	KD(CO, closed) /EC50,2, Isothermal Spectral Shift ([1]; PBS-T20 pH 7.4) [nM]	KD(CO, open) /EC50,1, Isothermal Spectral Shift ([1]; PBS-T20 pH 7.4) [nM]	EC50 [1, 2] [nM]	EC50 [1, 3] [nM]	Kd (BvPgb 1.2; read-out: KD(CO, open), Flash Photolysis and Stopped-Flow Rapid Mixing) [nM]	Kd (BvPgb 1.2 C86A mutant; [4]) [nM]	Kd (BvPgb 1.2 C86A mutant; [5])	Kd [1, 4] [nM]	Kd [1, 5]	Kd (BvPgb 1.2; read-out: KD(NO), Flash Photolysis and Stopped-Flow Rapid Mixing) [nM]
[C-]#[O+] [CO, carbon monoxide]	500 ± 200	400000 ± 300000	~500	~400000	400 ± 100	700000 ± 200000	~400	~700000	~100000	–	–	–	–	–
nitric oxide [NO]	–	–	–	–	–	–	–	–	–	400 ± 100	400 nM and ~400 nM	1600 ± 100	1600 nM and ~1600 nM	~6400
